Experimental data as given in publication PMC10810011 (Expert opinion on drug delivery, 2023).

Columns and labels:
[1] = Chemical stability in acidic PBS; type: physicochemical; details: acidic PBS pH 5.0 or 3.0, 37 °C, 2 h, HPLC
[2] = biological target: histamine H1 (Homo sapiens, UniProt P35367); details: M13 20 μM, 100 = no effect
[3] = Log D7.4 shake-flask; type: physicochemical; details: 1-octanol/phosphate buffer pH 7.4, shake-flask, room temperature
[4] = biological target: Opioid kappa (Homo sapiens, UniProt P41145); test: InVEST radioligand filter binding, Opioid kappa; details: M13 20 μM, 100 = no effect
Opioid kappa, sequence (P41145 whole entry): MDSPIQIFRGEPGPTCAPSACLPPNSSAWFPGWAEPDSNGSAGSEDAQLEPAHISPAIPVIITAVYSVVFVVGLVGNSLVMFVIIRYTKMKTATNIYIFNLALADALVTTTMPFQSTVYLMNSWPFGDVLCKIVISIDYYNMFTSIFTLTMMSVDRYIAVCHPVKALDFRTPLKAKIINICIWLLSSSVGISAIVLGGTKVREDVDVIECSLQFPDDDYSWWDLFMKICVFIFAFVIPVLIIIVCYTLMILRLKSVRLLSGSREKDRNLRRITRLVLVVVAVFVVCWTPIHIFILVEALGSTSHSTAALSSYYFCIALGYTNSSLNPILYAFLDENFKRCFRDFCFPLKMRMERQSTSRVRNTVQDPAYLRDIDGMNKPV

[5] = Thermodynamic; type: physicochemical; details: pure water, room temperature, 24 h
[6] = tested on: Caco-2/BBe cells; test: Cell cycle control phospho-antibody array; type: cell-based, human; details: 24 h, p < 0.01
[7] = tested on: 3D Caco-2/BBe cells; test: Cytotoxicity in 3D cultured Caco-2/BBe cells; type: cell-based, human
[8] = biological target: Muscarinic M3 (Homo sapiens, UniProt P20309); test: InVEST radioligand filter binding, Muscarinic M3; details: M13 20 μM, 100 = no effect
Muscarinic M3, sequence (P20309 whole entry): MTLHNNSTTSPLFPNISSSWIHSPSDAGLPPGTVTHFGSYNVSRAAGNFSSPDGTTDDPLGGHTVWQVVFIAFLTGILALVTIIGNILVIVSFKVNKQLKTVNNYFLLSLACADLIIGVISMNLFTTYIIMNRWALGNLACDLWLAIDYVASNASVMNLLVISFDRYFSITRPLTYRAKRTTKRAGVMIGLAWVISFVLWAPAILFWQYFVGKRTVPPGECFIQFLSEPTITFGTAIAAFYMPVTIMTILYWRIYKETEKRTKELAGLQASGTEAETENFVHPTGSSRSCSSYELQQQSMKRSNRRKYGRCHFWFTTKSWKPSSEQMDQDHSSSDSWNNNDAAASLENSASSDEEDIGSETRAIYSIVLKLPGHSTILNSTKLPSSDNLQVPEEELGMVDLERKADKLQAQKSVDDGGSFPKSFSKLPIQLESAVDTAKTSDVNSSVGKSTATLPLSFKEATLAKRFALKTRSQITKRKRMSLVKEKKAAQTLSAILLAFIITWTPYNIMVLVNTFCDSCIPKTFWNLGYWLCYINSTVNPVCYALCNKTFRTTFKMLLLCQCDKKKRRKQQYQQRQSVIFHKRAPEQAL

[9] = biological target: 5-HT1A (Homo sapiens, UniProt P08908); test: InVEST radioligand filter binding, 5-HT1A; details: M13 20 μM, 100 = no effect
5-HT1A, sequence (P08908 whole entry): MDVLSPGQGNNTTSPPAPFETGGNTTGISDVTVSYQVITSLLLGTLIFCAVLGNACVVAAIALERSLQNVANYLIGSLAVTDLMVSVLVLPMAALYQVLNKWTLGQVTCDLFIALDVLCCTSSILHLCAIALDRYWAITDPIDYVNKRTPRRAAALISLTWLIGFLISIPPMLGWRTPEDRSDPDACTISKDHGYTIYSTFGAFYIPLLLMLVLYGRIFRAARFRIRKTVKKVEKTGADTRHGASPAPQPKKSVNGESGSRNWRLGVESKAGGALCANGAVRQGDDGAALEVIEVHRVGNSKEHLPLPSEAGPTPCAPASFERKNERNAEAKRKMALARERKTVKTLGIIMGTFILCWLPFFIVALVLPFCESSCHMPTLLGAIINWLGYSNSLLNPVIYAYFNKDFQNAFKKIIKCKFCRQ

[10] = biological target: 5-HT2A (Homo sapiens, UniProt P28223); test: InVEST radioligand filter binding, 5-HT2A; details: M13 20 μM, 100 = no effect
5-HT2A, sequence (P28223 whole entry): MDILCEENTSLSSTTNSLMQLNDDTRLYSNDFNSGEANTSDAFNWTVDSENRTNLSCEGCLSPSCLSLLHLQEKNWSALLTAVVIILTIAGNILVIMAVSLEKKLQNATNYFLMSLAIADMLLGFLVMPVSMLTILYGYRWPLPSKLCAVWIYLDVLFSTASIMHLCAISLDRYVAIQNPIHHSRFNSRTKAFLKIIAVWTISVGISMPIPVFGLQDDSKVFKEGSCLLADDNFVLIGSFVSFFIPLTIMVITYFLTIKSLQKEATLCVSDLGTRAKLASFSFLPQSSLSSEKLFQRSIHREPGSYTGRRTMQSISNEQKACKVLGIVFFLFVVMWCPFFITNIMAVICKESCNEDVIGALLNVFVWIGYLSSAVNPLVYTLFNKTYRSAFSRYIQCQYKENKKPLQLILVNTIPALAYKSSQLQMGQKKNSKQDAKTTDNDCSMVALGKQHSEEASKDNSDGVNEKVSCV

[11] = tested on: HIEC-6 cells; test: MTT cytotoxicity, 2D HIEC-6; type: cell-based, human; details: HIEC-6 (normal intestinal), 24 h
[12] = biological target: PDE4A (Homo sapiens, UniProt P27815); test: InVEST enzymatic activity, PDE4A; type: biochemical; details: M13 20 μM, 100 = no effect
PDE4A, sequence (P27815 whole entry): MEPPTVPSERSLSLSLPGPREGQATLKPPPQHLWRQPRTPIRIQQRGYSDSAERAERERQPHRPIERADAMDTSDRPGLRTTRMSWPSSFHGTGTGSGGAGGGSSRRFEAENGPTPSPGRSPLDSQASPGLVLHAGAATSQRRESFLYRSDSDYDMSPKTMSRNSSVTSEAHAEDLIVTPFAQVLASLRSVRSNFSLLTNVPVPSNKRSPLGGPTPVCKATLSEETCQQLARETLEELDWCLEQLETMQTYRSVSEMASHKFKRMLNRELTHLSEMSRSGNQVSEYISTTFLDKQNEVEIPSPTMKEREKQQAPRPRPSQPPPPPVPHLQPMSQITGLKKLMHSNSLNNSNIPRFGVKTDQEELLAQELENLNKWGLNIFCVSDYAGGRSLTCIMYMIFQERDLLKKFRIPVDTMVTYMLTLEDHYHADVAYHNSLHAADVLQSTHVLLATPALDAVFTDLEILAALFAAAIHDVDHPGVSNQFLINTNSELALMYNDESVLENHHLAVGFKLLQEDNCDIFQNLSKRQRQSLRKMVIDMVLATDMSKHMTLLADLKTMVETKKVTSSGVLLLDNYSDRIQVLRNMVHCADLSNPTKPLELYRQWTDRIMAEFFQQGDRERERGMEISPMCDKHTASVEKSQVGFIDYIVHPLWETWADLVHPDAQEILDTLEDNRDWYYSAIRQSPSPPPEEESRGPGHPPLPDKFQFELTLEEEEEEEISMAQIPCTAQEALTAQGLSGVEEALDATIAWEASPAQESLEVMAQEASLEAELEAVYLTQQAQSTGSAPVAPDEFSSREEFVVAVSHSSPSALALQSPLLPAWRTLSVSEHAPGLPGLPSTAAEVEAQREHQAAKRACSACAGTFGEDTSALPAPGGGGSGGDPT

[13] = biological target: D2S dopamine (Homo sapiens, UniProt P14416); test: InVEST radioligand filter binding, D2S dopamine; details: M13 20 μM, 100 = no effect
D2S dopamine, sequence (P14416 1-414 isoform P14416-2): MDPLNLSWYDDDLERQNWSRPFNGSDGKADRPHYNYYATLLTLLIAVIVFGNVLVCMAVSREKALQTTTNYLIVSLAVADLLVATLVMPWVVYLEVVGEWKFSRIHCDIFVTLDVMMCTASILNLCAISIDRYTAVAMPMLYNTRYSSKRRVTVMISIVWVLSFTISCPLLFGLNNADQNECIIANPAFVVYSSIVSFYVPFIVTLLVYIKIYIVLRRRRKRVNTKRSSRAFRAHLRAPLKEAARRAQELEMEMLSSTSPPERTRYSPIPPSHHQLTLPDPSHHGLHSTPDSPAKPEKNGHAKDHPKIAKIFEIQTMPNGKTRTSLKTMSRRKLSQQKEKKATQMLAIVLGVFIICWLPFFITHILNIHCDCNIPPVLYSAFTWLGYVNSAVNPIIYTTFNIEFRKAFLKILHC

[14] = tested on: Salmonella typhimurium TA100; test: Ames test, strain TA100; details: +S9 or -S9
[15] = tested on: Caco-2/BBe cells; test: MTT cytotoxicity, 2D Caco-2/BBe; details: 24 h
[16] = tested on: intestinal microbiota of AOM/DSS-induced CAC mice; test: Intestinal microbiota analysis in AOM/DSS-induced CAC mice; type: in vivo, mouse; details: feces day 60
[17] = biological target: T1, AHR-inhibition (Homo sapiens, UniProt P35869); test: InVEST fluorescence polarization binding/cell-based activity, AHR-inhibition; details: M13 20 μM, 100 = no effect
T1 sequence (P35869 11-848): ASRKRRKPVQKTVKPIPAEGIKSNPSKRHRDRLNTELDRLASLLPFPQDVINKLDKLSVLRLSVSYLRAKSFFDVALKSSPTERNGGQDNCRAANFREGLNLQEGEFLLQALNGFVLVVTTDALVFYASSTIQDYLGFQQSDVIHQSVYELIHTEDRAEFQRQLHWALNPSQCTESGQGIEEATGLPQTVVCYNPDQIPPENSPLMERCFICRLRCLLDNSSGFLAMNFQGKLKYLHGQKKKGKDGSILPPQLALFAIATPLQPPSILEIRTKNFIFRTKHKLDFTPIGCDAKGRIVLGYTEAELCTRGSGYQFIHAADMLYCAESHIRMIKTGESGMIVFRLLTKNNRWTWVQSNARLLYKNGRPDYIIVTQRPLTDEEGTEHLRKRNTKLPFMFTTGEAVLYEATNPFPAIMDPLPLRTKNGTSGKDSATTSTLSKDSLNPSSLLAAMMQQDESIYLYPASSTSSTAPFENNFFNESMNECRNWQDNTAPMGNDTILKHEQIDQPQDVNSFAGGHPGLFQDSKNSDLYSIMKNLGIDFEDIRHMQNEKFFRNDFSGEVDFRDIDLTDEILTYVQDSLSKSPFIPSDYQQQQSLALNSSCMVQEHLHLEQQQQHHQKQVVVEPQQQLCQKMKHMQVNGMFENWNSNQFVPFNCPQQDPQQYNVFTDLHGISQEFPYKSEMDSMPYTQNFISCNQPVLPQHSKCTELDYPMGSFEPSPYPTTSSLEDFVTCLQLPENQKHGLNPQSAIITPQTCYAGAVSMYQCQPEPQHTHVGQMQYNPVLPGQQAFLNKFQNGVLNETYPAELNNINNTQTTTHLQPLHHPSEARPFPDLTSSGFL

[18] = biological target: Muscarinic M1 (Homo sapiens, UniProt P11229); type: binding; details: M13 20 μM, 100 = no effect
Muscarinic M1, sequence (P11229 whole entry): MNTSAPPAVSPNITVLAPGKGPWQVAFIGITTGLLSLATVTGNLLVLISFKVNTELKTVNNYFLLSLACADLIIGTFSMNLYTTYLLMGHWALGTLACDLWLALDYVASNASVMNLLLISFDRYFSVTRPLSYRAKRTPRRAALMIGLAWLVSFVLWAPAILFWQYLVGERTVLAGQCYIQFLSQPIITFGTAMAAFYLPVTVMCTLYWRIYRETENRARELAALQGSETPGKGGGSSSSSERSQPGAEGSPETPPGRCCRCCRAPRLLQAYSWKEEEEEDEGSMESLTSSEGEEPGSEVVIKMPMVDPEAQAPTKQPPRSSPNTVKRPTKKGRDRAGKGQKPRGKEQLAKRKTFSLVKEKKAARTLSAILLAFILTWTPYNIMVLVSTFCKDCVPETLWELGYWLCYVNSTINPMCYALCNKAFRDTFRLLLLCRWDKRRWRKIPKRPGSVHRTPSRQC

[19] = biological target: T2, alpha2A adrenergic (Homo sapiens, UniProt P08913); test: InVEST radioligand filter binding, alpha2A adrenergic; details: M13 20 μM, 100 = no effect
T2 sequence (P08913 1-465): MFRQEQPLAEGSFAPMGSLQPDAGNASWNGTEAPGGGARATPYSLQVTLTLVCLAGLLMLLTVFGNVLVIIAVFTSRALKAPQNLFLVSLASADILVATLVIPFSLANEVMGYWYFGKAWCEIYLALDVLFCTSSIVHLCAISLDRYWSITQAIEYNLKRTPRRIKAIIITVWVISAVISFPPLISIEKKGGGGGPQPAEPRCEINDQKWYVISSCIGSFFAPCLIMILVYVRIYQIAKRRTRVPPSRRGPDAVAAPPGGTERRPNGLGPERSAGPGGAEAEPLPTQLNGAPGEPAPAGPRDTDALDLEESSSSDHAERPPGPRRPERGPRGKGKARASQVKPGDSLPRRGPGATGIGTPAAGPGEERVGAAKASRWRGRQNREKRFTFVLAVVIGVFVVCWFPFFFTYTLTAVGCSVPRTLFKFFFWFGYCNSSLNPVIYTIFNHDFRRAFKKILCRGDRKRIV

[20] = biological target: A1 adenosine (Homo sapiens, UniProt P30542); test: InVEST radioligand filter binding, A1 adenosine; details: M13 20 μM, 100 = no effect
A1 adenosine, sequence (P30542 whole entry): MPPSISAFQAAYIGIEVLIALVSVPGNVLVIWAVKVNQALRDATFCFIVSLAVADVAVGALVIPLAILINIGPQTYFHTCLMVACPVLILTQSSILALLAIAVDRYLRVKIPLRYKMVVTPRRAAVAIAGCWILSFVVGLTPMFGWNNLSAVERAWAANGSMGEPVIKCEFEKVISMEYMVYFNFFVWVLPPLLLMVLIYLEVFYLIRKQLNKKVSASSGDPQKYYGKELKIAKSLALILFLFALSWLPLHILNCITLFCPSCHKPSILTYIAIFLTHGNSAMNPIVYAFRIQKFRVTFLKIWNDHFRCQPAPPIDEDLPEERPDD

[21] = biological target: 5-HT1B (Homo sapiens, UniProt P28222); test: InVEST radioligand filter binding, 5-HT1B; details: 5-HT1B, M13 20 μM, 100 = no effect
5-HT1B, sequence (P28222 whole entry): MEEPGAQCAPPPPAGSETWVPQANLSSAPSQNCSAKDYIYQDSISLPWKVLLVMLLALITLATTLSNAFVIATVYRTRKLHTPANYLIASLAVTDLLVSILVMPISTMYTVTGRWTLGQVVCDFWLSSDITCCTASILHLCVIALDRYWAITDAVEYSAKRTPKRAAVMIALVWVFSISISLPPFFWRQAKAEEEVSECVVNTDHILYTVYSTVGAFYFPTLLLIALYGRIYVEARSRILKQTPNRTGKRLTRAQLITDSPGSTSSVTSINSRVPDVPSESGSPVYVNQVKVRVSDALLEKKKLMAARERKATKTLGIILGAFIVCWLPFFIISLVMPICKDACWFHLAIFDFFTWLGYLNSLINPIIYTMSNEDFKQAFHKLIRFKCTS

histamine H1, sequence (P35367 whole entry): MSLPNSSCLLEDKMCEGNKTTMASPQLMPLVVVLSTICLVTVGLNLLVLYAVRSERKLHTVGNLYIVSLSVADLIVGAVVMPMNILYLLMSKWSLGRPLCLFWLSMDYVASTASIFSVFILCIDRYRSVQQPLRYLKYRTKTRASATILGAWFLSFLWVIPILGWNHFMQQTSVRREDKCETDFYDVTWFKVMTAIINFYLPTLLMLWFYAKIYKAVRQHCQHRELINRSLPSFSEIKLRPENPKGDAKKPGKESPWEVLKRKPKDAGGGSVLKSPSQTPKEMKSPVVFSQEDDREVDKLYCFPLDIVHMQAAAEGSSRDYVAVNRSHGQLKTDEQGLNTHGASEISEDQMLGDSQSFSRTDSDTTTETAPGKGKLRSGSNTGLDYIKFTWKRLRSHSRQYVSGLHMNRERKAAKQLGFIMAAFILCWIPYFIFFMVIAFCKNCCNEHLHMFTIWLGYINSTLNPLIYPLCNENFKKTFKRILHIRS

In the case of `CCCCCC(CC(=O)CCc1ccc(O)c(OC)c1)SC[C@H](NC(=O)CC[C@H](N)C(=O)O)C(=O)NCC(=O)O` (stereo partly shown) [M13, 5-glutathione-6-shogaol], the “relative contents of M13 before and after incubation” value [1] is reported as “consistent”, the “% Activity Data 1” value ([2]; repetition 1) is reported as 102% and the “% Activity Data 2” value ([2]; repetition 2) is reported as 99%. For the same compound, the LogD7.4 [3] was −1.75, the “% Activity Data 1” value ([4]; repetition 1) was 95% and the “% Activity Data 2” value ([4]; repetition 2) was 93%. For the same compound, the “thermodynamic (or equilibrium) solubility” value [5] was 1390.03 µM, the “CDC25A expression compared with the control and NL groups” value [6] was “down-regulated” and the “phosphorylated CDC25A (p-CDC25A) compared with the control and NL groups” value [6] was “down-regulated”. The “sizes of 3D cell spheres” value ([7]; 11 days culture, regardless of the group) was “did not change significantly”, the “green fluorescence intensity of 3D cell spheres (live cells) vs NC group” value ([7]; M13 ≥ 80 μM, day 11, p < 0.05) was “significantly lower” and the “% Activity Data 1” value ([8]; repetition 1) was 100%. For the same compound, the “% Activity Data 2” value ([8]; repetition 2) was 103%, the “% Activity Data 1” value ([9]; repetition 1) was 102% and the “% Activity Data 2” value ([9]; repetition 2) was 100%. For the same compound, the “% Activity Data 1” value ([10]; repetition 1) was 99%, the “% Activity Data 2” value ([10]; repetition 2) was 98% and the IC50 [11] was greater than 100 µM. For the same compound, the “% Activity Data 1” value ([12]; repetition 1) was 93%, the “% Activity Data 2” value ([12]; repetition 2) was 94% and the “% Activity Data 1” value ([13]; repetition 1) was 106%. The “% Activity Data 2” value ([13]; repetition 2) was 89%, the “number of revertant colonies” value ([14]; TA100, 156 ~ 5000 μg/plate) was “did not increase” and the mutation factor ([14]; TA100, all concentrations 156 ~ 5000 μg/plate) was “less than 1.6”. For the same compound, the “fold by which IC50 against HIEC-6 is higher than against Caco-2/BBe” value [15] was 6 fold, the IC50 ([15]; Caco-2/BBe) was 16.7 µM and the “unique species (Venn diagram vs WT and AOM/DSS groups)” value [16] was “three”. For the same compound, the “% Activity Data 1” value ([17]; repetition 1) was 98%, the “% Activity Data 2” value ([17]; repetition 2) was 101% and the “% Activity Data 1” value ([18]; repetition 1) was 111%. The “% Activity Data 2” value ([18]; repetition 2) was 113%, the “% Activity Data 1” value ([19]; repetition 1) was 92% and the “% Activity Data 2” value ([19]; repetition 2) was 100%. For the same compound, the “% Activity Data 1” value ([20]; repetition 1) was 85%, the “% Activity Data 2” value ([20]; repetition 2) was 87% and the “% Activity Data 1” value ([21]; repetition 1) was 100%. For the same compound, the “% Activity Data 2” value ([21]; repetition 2) was 102%.
